Measurements from ChEMBL document CHEMBL1142888, “Synthesis, antimicrobial, and anti-inflammatory activities of novel 2-(1-adamantyl)-5-substituted-1,3,4-oxadiazoles and 2-(1-adamantylamino)-5-substituted-1,3,4-thiadiazoles” (2007).
Values after ≈ are worked out from the molar mass of the structure shown.

Experiments:
[1] = system: Bacillus subtilis; assay: Antimicrobial activity against Bacillus subtilis IFO 3007 at 100 ug/disc after 24 hrs; type: functional; settings: IFO 3007, 24 h, read-out: IZ
[2] = system: Staphylococcus aureus; assay: Antimicrobial activity against Staphylococcus aureus IFO 3060 after 24 hrs; type: functional; settings: IFO 3060, 24 h
[3] = system: Bacillus subtilis; assay: Antimicrobial activity against Bacillus subtilis IFO 3007 after 24 hrs; type: functional; settings: IFO 3007, 24 h
[4] = system: Escherichia coli; assay: Antimicrobial activity against Escherichia coli IFO 3301 at 100 ug/disc after 24 hrs; type: functional; settings: IFO 3301, 24 h, read-out: IZ
[5] = system: Pseudomonas aeruginosa; assay: microbe, parasite or virus in culture; settings: IFO 3448
Description: Antimicrobial activity against Pseudomonas aeruginosa IFO 3448 at 200 ug/disc

[6] = system: Pseudomonas aeruginosa; assay: Antimicrobial activity against Pseudomonas aeruginosa IFO 3448 at 100 ug/disc; type: functional; settings: read-out: IZ
[7] = system: Staphylococcus aureus; assay: Antimicrobial activity against Staphylococcus aureus IFO 3060 at 100 ug/disc after 24 hrs; type: functional; settings: IFO 3060, 24 h, read-out: IZ

CC1(C)S[C@@H]2[C@H](NC(=O)[C@H](N)c3ccccc3)C(=O)N2[C@H]1C(=O)O [AMPICILLIN]
zone of inhibition at 100 µg/disc [1]: 18 mm | MIC [2]: 1 µg/mL (≈ 2.86 µM) | MIC [3]: 0.5 µg/mL (≈ 1.43 µM) | zone of inhibition at 100 µg/disc [4]: 16 mm | MIC [5]: 2 µg/mL (≈ 5.72 µM) | zone of inhibition at 100 µg/disc [6]: 15 mm | zone of inhibition at 100 µg/disc [7]: 19 mm
